Legend:
[1] = Single dose pharmacokinetics, oral bioavailability; format: in vivo, Sprague-Dawley rats; conditions: for bioavailability: rat, in vivo, po
Method: The single dose pharmacokinetics of select compounds were evaluated in Sprague-Dawley rats (Charles River) after a 5 mg/kg oral dose (n = 3) (10% DMSO in PEG-400) administered by gavage or by 5 mg/kg IV bolus dose (n = 3) (10% DMSO in PEG-400). Compound and the internal standard were separated from each other and coextracted contaminants on a 50 mm × 3 mm Keystone Betasil CN 5 µm column with an acetonitrile/0.1% trifluoroacetic acid mobile phase (50:50, by volume) at a flow rate of 0.7 mL/min. Analysis was performed on a Sciex API3000 biomolecular mass analyzer with a heated nebulizer interface. Compound and internal standard peak areas were determined using Sciex MacQuan software. The plasma drug concentration of each sample was calculated by least-squares linear regression analysis (nonweighted) of the peak area ratio (parent/internal standard) of the spiked plasma standards versus concentration. The plasma concentration data were submitted to multiexponential curve fitting using WinNonlin.3. The area under the plasma concentration-time curve was calculated using the linear trapezoidal rule for the plasma concentration-time profiles.
One way to calculate bioavailability of a drug or agent is by dividing the plasma concentration following an oral dose by the concentration following an intravenous dose.

[2] = system: mouse FL5.12 cells transfected with Bcl-xL; test: FL5.12 cellular assay (cell viability, CellTiter-Glo); format: cell-based; conditions: IL-3-depleted, 3% FBS assay media, 24 hours, read-out: FL5.12 Bcl-xL, -IL3, EC50
Method: Cell viability was assayed using the CellTiter-Glo assay (Promega Corp., Madison, WI) according to the manufacturer instructions. Individual determinations were the result of duplicate values. […] Table 2. In Vitro Data

[3] = system: Molt-4 human acute lymphoblastic leukemia cells; test: Molt-4 cellular assay (cell viability, MTS); format: cell-based; conditions: 10% human serum, 48 hours
Method: Molt-4 (ATCC, Manassas, VA) human acute lymphoblastic leukemia cells were plated 50,000 cells per well in 96-well tissue culture plates in a total volume of 100 µL tissue culture medium supplemented with 10% human serum (Invitrogen, Carlsbad, CA) and treated with a 3-fold serial dilution of the compounds of interest from 5 µM to […]. Each concentration was tested in duplicate at least 3 separate times. The number of viable cells following 48 hours of compound treatment was determined using the CellTiter 96® Aqueous non-radioactive cell proliferation MTS assay according to manufacturer's recommendations (Promega Corp., Madison, WI).

Compound	bioavailability ([1]; 1 mg/kg) [%]	EC50 [3] [nM]	bioavailability ([1]; 5 mg/kg) [%]	EC50 [2] [nM]	F (%), dose ([1]; Rat p.o. dose, 5 mpk)
Cc1c(-c2ccc(N3CCc4cccc(C(=O)Nc5nc6ccccc6s5)c4C3C)nc2C(=O)O)cnn1CC12CC3CC(CC(C3)C1)C2 (stereo not drawn) [Example 43, 6-[8-(1,3-benzothiazol-2-ylcarbamoyl)-1-methyl-3,4-dihydroisoquinolin-2(1H)-yl]-3-[5-methyl-1-(tricyclo[3.3.1.1^3,7]dec-1-ylmethyl)-1H-pyrazol-4-yl]pyridine-2-carboxylic acid]	20			9	
COCCOC12CC3CC(CC(Cn4ncc(-c5ccc(N6CCc7cccc(C(=O)Nc8nc9ccccc9s8)c7C6)nc5C(=O)O)c4C)(C3)C1)C2 [Example 45, 6-[8-(1,3-benzothiazol-2-ylcarbamoyl)-3,4-dihydroisoquinolin-2(1H)-yl]-3-(1-{[3-(2-methoxyethoxy)tricyclo[3.3.1.1^3,7]dec-1-yl]methyl}-5-methyl-1H-pyrazol-4-yl)pyridine-2-carboxylic acid]		4		0.9	
Cc1c(-c2ccc(N3CCc4cccc(C(=O)Nc5nc6ccccc6s5)c4C3)nc2C(=O)O)cnn1CC12CC3CC(CC(C3)C1)C2 [Example 3, 6-[8-(1,3-benzothiazol-2-ylcarbamoyl)-3,4-dihydroisoquinolin-2(1H)-yl]-3-[5-methyl-1-(tricyclo[3.3.1.1^3,7]dec-1-ylmethyl)-1H-pyrazol-4-yl]pyridine-2-carboxylic acid]		6		< 1	[…]
Cc1c(-c2ccc(N3CCc4cccc(C(=O)Nc5nc6ccccc6s5)c4C3)nc2C(=O)NS(=O)(=O)C2CC2)cnn1CC12CC3CC(CC(C3)C1)C2 [Example 18, N-(1,3-benzothiazol-2-yl)-2-{6-[(cyclopropylsulfonyl)carbamoyl]-5-[5-methyl-1-(tricyclo[3.3.1.1^3,7]dec-1-ylmethyl)-1H-pyrazol-4-yl]pyridin-2-yl}-1,2,3,4-tetrahydroisoquinoline-8-carboxamide]		24	31	1	
Cc1c(-c2ccc(N3CCc4cccc(C(=O)Nc5nc6cccnc6s5)c4C3)nc2C(=O)O)cnn1CC12CC3CC(CC(C3)C1)C2 [Example 24, 3-[5-methyl-1-(tricyclo[3.3.1.1^3,7]dec-1-ylmethyl)-1H-pyrazol-4-yl]-6-[8-([1,3]thiazolo[5,4-b]pyridin-2-ylcarbamoyl)-3,4-dihydroisoquinolin-2(1H)-yl]pyridine-2-carboxylic acid]			29	< 1	
COCCC1(Cn2ncc(-c3ccc(N4CCc5cccc(C(=O)Nc6nc7ccccc7s6)c5C4)nc3C(=O)O)c2C)CCCCCCC1 [Example 46, 6-[8-(1,3-benzothiazol-2-ylcarbamoyl)-3,4-dihydroisoquinolin-2(1H)-yl]-3-(1-{[1-(2-methoxyethyl)cyclooctyl]methyl}-5-methyl-1H-pyrazol-4-yl)pyridine-2-carboxylic acid]	58			1	
Cc1c(-c2ccc(N3CCc4cccc(C(=O)Nc5cn6ccccc6n5)c4C3)nc2C(=O)O)cnn1CC12CC3CC(CC(C3)C1)C2 [Example 49, 6-[8-(imidazo[1,2-a]pyridin-2-ylcarbamoyl)-3,4-dihydroisoquinolin-2(1H)-yl]-3-[5-methyl-1-(tricyclo[3.3.1.1^3,7]dec-1-ylmethyl)-1H-pyrazol-4-yl]pyridine-2-carboxylic acid]	15			5	

Second part, led by results:

bioavailability ([1]; 1 mg/kg) [%]	EC50 [3] [nM]	bioavailability ([1]; 5 mg/kg) [%]	Compound	EC50 [2] [nM]	F (%), dose ([1]; Rat p.o. dose, 5 mpk)
	35		Cc1c(-c2ccc(N3CCc4cccc(C(=O)Nc5nc6ccccc6s5)c4C3)nc2C(=O)O)cc(C#N)n1CC12CC3CC(CC(C)(C3)O1)C2 [Example 72, 6-[8-(1,3-benzothiazol-2-ylcarbamoyl)-3,4-dihydroisoquinolin-2(1H)-yl]-3-{5-cyano-2-methyl-1-[(3-methyl-2-oxatricyclo[3.3.1.1^3,7]dec-1-yl)methyl]-1H-pyrrol-3-yl}pyridine-2-carboxylic acid]	0.2	
	29		Cc1c(-c2ccc(N3CCc4cccc(C(=O)Nc5nc6ccccc6s5)c4C3)nc2C(=O)O)cccc1N(C)C(=O)C12CC3CC(CC(C3)C1)C2 [Example 52, 6-[8-(1,3-benzothiazol-2-ylcarbamoyl)-3,4-dihydroisoquinolin-2(1H)-yl]-3-(2-methyl-3-{methyl[tricyclo[3.3.1.1^3,7]dec-1-ylcarbonyl]amino}phenyl)pyridine-2-carboxylic acid]	3	
31	24		Cc1c(-c2ccc(N3CCc4cccc(C(=O)Nc5nc6ccccc6s5)c4C3)nc2C(=O)O)cnn1CC12CC3CC(CC(C3)O1)C2 [Example 59, 6-[8-(1,3-benzothiazol-2-ylcarbamoyl)-3,4-dihydroisoquinolin-2(1H)-yl]-3-[5-methyl-1-(2-oxatricyclo[3.3.1.1^3,7]dec-1-ylmethyl)-1H-pyrazol-4-yl]pyridine-2-carboxylic acid]	0.3	
		20	COC12CC3CC(CC(Cn4ncc(-c5ccc(N6CCc7cccc(C(=O)Nc8nc9ccccc9s8)c7C6)nc5C(=O)O)c4C)(C3)C1)C2 [Example 16, 6-[8-(1,3-benzothiazol-2-ylcarbamoyl)-3,4-dihydroisoquinolin-2(1H)-yl]-3-(1-{[3-methoxytricyclo[3.3.1.1^3,7]dec-1-yl]methyl}-5-methyl-1H-pyrazol-4-yl)pyridine-2-carboxylic acid]	< 1	
	487		O=C(Nc1nc2ccccc2s1)c1cccc2c1CN(c1ccc(-c3cnn(CC4C5CC6CC(C5)CC4C6)c3)c(C(=O)O)n1)CC2 (stereo not drawn) [Example 10, 6-[8-(1,3-benzothiazol-2-ylcarbamoyl)-3,4-dihydroisoquinolin-2(1H)-yl]-3-[1-(tricyclo[3.3.1.1^3,7]dec-2-ylmethyl)-1H-pyrazol-4-yl]pyridine-2-carboxylic acid]	29	
		10	O=C(Nc1nc2ccccc2s1)c1cccc2c1CN(c1ccc(-c3cnn(CC45CC6CC(CC(C6)O4)C5)c3)c(C(=O)O)n1)CC2 [Example 13, 6-[8-(1,3-benzothiazol-2-ylcarbamoyl)-3,4-dihydroisoquinolin-2(1H)-yl]-3-[1-(2-oxatricyclo[3.3.1.1^3,7]dec-1-ylmethyl)-1H-pyrazol-4-yl]pyridine-2-carboxylic acid]	71	
	201		O=C(Nc1nc2ccccc2s1)c1cccc2c1CN(c1ccc(-c3cnn(CC45CC6CC(CC(C6)C4)C5)c3)c(C(=O)O)n1)CC2 [Example 1, 6-[8-(1,3-benzothiazol-2-ylcarbamoyl)-3,4-dihydroisoquinolin-2(1H)-yl]-3-{1-[tricyclo[3.3.1.1^3,7]dec-1-ylmethyl]-1H-pyrazol-4-yl}pyridine-2-carboxylic acid]	39	
15			O=C(Nc1nc2ccccc2s1)c1cccc2c1CN(c1ccc(-c3cnn(CC45CC6CC(CC(C6)C4)C5)c3Cl)c(C(=O)O)n1)CC2 [Example 42, 6-[8-(1,3-benzothiazol-2-ylcarbamoyl)-3,4-dihydroisoquinolin-2(1H)-yl]-3-{5-chloro-1-[tricyclo[3.3.1.1^3,7]dec-1-ylmethyl]-1H-pyrazol-4-yl}pyridine-2-carboxylic acid]	0.5	

Reference: patent EP2766361B1, “8-CARBAMOYL-2-(2,3-DISUBSTITUTED PYRID-6-YL)-1,2,3,4-TETRAHYDROISOQUINOLINE DERIVATIVES AS APOPTOSIS-INDUCING AGENTS FOR THE TREATMENT OF CANCER AND IMMUNE AND AUTOIMMUNE DISEASES” (priority 2011, dated 2013)
